Values of other authors as cited in patent publication US6355457B1, “Genes for the biosynthesis of epothilones” (Novartis AG, priority 1998, dated 2002).

Test system: human solid tumors
Settings: in vivo

SMILES	activity against human solid tumors
CC(=O)O[C@H]1C(=O)[C@@]2(C)[C@H]([C@H](OC(=O)c3ccccc3)[C@]3(O)C[C@H](OC(=O)[C@H](O)[C@@H](NC(=O)c4ccccc4)c4ccccc4)C(C)=C1C3(C)C)[C@]1(OC(C)=O)CO[C@@H]1C[C@@H]2O [Taxol]	significant activity against various human solid tumors
CC(=O)O[C@@]12CO[C@@H]1C[C@H](O)[C@@]1(C)C(=O)[C@H](O)C3=C(C)[C@@H](OC(=O)[C@H](O)[C@@H](NC(=O)OC(C)(C)C)c4ccccc4)C[C@@](O)([C@@H](OC(=O)c4ccccc4)[C@H]21)C3(C)C [taxotere]	significant activity against various human solid tumors
